Experimental data: the supplement of paper PMC10307832

Assays:
Assay in all cases: relative viability (nuclei count vs DMSO), 5 days (fraction); higher = more cells survive
[1] = compound: C1=CC(=CC=C1NC(=S)NNC2=C(C=C(C=C2[N+](=O)[O-])C(F)(F)F)[N+](=O)[O-])F [Kobe2602] + Nc1nc2[nH]cc(CCc3ccc(C(=O)N[C@@H](CCC(=O)O)C(=O)O)cc3)c2c(=O)[nH]1 [Pemetrexed] (partner 0.2 µM)
In short: (§1)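 Lung cancer cell lines were seeded in 1536-well plates and dosed by pin tool the next day, with either a single drug or a fixed anchor-drug dose combined with five library-drug doses (not always all listed) spaced in √10 steps. Five days later, one step fixed the cells and stained their nuclei (final 0.05% Triton X-100, 1% formaldehyde, 1 ug/ml Hoechst), and nuclei were counted on 4× images. Relative viability is the nuclei count in treated wells divided by the count in vehicle wells, and each value is the median of duplicate plates.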

[2] = compound: COc1cc2nccc(Oc3ccc(NC(=O)C4(C(=O)Nc5ccc(F)cc5)CC4)cc3)c2cc1OC [Cabozantinib] + NC(=O)Nc1cc(-c2cccc(F)c2)sc1C(=O)N[C@H]1CCCNC1 [AZD7762] (partner 0.2 µM)
In short: as §1

[3] = compound: O[C@@H](COc1cccc2ncccc12)CN1CCN([C@@H]2c3ccccc3[C@@H]3[C@H](c4ccccc42)C3(F)F)CC1 [Zosuquidar] + COc1cc2c(Oc3ccc(NC(=O)C4(C(=O)Nc5ccc(F)cc5)CC4)cc3F)ccnc2cc1OCCCN1CCOCC1 [Foretinib] (partner 0.25 µM)
In short: as §1

[4] = compound: O[C@@H](COc1cccc2ncccc12)CN1CCN([C@@H]2c3ccccc3[C@@H]3[C@H](c4ccccc42)C3(F)F)CC1 [Zosuquidar] + Cc1nc(Nc2ncc(C(=O)Nc3c(C)cccc3Cl)s2)cc(N2CCN(CCO)CC2)n1 [Dasatinib] (partner 0.075 µM)
In short: as §1

Cell Line	relative viability ([1]; first compound 0.2 µM)	relative viability ([1]; first compound 0.6325 µM)	relative viability ([1]; first compound 2 µM)	relative viability ([1]; first compound 6.325 µM)	relative viability ([1]; first compound 20 µM)	relative viability ([2]; first compound 0.02 µM)	relative viability ([2]; first compound 0.06325 µM)	relative viability ([2]; first compound 0.2 µM)	relative viability ([2]; first compound 0.6325 µM)	relative viability ([2]; first compound 2 µM)	relative viability ([3]; first compound 0.01 µM)	relative viability ([3]; first compound 0.03162 µM)	relative viability ([3]; first compound 0.1 µM)	relative viability ([3]; first compound 0.3162 µM)	relative viability ([3]; first compound 1 µM)	relative viability ([4]; first compound 0.01 µM)	relative viability ([4]; first compound 0.03162 µM)	relative viability ([4]; first compound 0.1 µM)	relative viability ([4]; first compound 0.3162 µM)	relative viability ([4]; first compound 1 µM)
ChaGo-K-1	0.27	0.26	0.267	0.267	0.266	0.927	0.943	0.868	0.872	0.857	0.905	0.994	0.873	0.909	0.943	0.615	0.583	0.602	0.737	0.624
EMC-BAC-2	0.459	0.453	0.445	0.492	0.457	0.95	1.26	1.11	1.13	1.13	0.965	1.11	0.995	1.06	0.985	0.325	0.34	0.373	0.339	0.325
LCLC-103H	0.494	0.502	0.454	0.438	0.449	0.762	0.87	0.811	0.813	0.721	0.694	0.678	0.698	0.844	0.809	0.429	0.447	0.399	0.488	0.537
NCI-H1395	1.04	1.01	0.931	0.967	0.843	0.367	0.445	0.436	0.42	0.401	0.98	0.957	0.824	1.06	1	0.404	0.378	0.307	0.406	0.431
NCI-H23	0.653	0.8	0.82	0.584	0.742		0.312	0.248	0.261	0.241	0.979	0.875	1.02	1.04	1.09	0.713	0.811	0.739	0.983	0.806
NCI-H322M	0.63	0.646	0.605	0.652	0.631	0.574	0.716	0.543	0.725	0.612	0.961	1.19	0.723	0.983	0.972	0.242	0.229	0.242	0.269	0.227
NCI-H2126	0.647	0.67	0.629	0.736	0.686	0.901	1.03	0.941	0.988	1.07	1.17	1.09		1.18	1.23	0.581	0.599		0.639	0.61
NCI-H647	0.178	0.22	0.174	0.172	0.184	0.44	0.77	0.427	0.594	0.4	1.21	1.13	1.32	1.27	1.02	0.168	0.121	0.137	0.229	0.163
LU99A	0.179	0.169	0.186	0.207	0.163	0.292	0.376	0.411	0.279	0.397	0.784	0.931	0.813	0.855	0.814	0.458	0.577	0.505	0.552	0.569
NCI-H1666	0.81	0.861	1.01	0.934	0.861	0.712	1.02	0.763	0.921	0.814	0.946	1.01	0.976	1.02	0.942	0.785	0.818	0.869	0.9	0.761
NCI-H596	0.541	0.523	0.568	0.505	0.495	1.12	1.35	1.15	1.07	1.09	0.805		0.788	0.939	0.868	0.584		0.715	0.623	0.618
